Columns and labels:
Conditions in all cases: Compound concentration 100.0 nM
[1] = target: Atypical kinase COQ8A, mitochondrial (Homo sapiens) (UniProt Q8NI60)
[2] = target: Cytoplasmic tyrosine-protein kinase BMX (Homo sapiens) (UniProt P51813)
[3] = system: Proto-oncogene tyrosine-protein kinase receptor Ret (Homo sapiens), P07949 [V804M]
[4] = target: Mitogen-activated protein kinase kinase kinase 4 (Homo sapiens) (UniProt Q9Y6R4)
[5] = target: Phosphorylase b kinase regulatory subunit alpha, liver isoform (Homo sapiens) (UniProt P46019)
[6] = target: Phosphatidylinositol 3-kinase catalytic subunit type 3 (Homo sapiens) (UniProt Q8NEB9)
[7] = target: Serine/threonine-protein kinase OSR1 (Homo sapiens) (UniProt O95747)
[8] = target: LIM domain kinase 2 (Homo sapiens) (UniProt P53671)
[9] = system: Phosphatidylinositol 4,5-bisphosphate 3-kinase catalytic subunit alpha isoform (Homo sapiens), P42336 [H1047Y]
[10] = system: Epidermal growth factor receptor (Homo sapiens), P00533 [G719C]
[11] = system: Hepatocyte growth factor receptor (Homo sapiens), P08581 [Y1235D]
[12] = system: Phosphatidylinositol 4,5-bisphosphate 3-kinase catalytic subunit alpha isoform (Homo sapiens), P42336 [C420R]
[13] = target: Muscle, skeletal receptor tyrosine-protein kinase (Homo sapiens) (UniProt O15146)
[14] = target: Mitogen-activated protein kinase 6 (Homo sapiens) (UniProt Q16659)
[15] = target: Serine/threonine-protein kinase PAK 3 (Homo sapiens) (UniProt O75914)
[16] = target: Casein kinase I isoform gamma-1 (Homo sapiens) (UniProt Q9HCP0)
[17] = system: Phosphatidylinositol 4,5-bisphosphate 3-kinase catalytic subunit alpha isoform (Homo sapiens), P42336 [E545K]
[18] = target: Mitogen-activated protein kinase 9 (Homo sapiens) (UniProt P45984)
[19] = target: Mast/stem cell growth factor receptor Kit (Homo sapiens) (UniProt P10721)
[20] = system: Tyrosine-protein kinase ABL1 (Homo sapiens), P00519 [Y253F]
[21] = target: Focal adhesion kinase 1 (Homo sapiens) (UniProt Q05397)
[22] = target: Calcium/calmodulin-dependent protein kinase type II subunit alpha (Homo sapiens) (UniProt Q9UQM7)
[23] = target: cAMP-dependent protein kinase catalytic subunit alpha (Homo sapiens) (UniProt P17612)
[24] = target: TGF-beta receptor type-2 (Homo sapiens) (UniProt P37173)
[25] = target: Activin receptor type-1 (Homo sapiens) (UniProt Q04771)
[26] = target: Epidermal growth factor receptor (Homo sapiens) (UniProt P00533)
[27] = target: Glycogen synthase kinase-3 beta (Homo sapiens) (UniProt P49841)
[28] = target: Mitogen-activated protein kinase kinase kinase 20 (Homo sapiens) (UniProt Q9NYL2)
[29] = target: Receptor tyrosine-protein kinase erbB-2 (Homo sapiens) (UniProt P04626)
[30] = target: MAP kinase-activated protein kinase 5 (Homo sapiens) (UniProt Q8IW41)
[31] = target: Aurora kinase B (Homo sapiens) (UniProt Q96GD4)
[32] = target: Serine/threonine-protein kinase 32B (Homo sapiens) (UniProt Q9NY57)
[33] = target: Tyrosine-protein kinase JAK2 (Homo sapiens) (UniProt O60674)
[34] = target: Ribosomal protein S6 kinase alpha-2 (Homo sapiens) (UniProt Q15349)
[35] = target: Receptor tyrosine-protein kinase erbB-3 (Homo sapiens) (UniProt P21860)
[36] = target: Protein kinase C eta type (Homo sapiens) (UniProt P24723)
[37] = target: Mitogen-activated protein kinase 3 (Homo sapiens) (UniProt P27361)
[38] = target: Angiopoietin-1 receptor (Homo sapiens) (UniProt Q02763)
[39] = target: Cyclin-dependent kinase 2 homolog (Plasmodium falciparum (isolate 3D7)) (UniProt P61075)
[40] = target: Serine/threonine-protein kinase Nek5 (Homo sapiens) (UniProt Q6P3R8)
[41] = target: Microtubule-associated serine/threonine-protein kinase 1 (Homo sapiens) (UniProt Q9Y2H9)
[42] = target: Serine/threonine-protein kinase WNK1 (Homo sapiens) (UniProt Q9H4A3)
[43] = target: TRAF2 and NCK-interacting protein kinase (Homo sapiens) (UniProt Q9UKE5)
[44] = target: Interferon-induced, double-stranded RNA-activated protein kinase (Homo sapiens) (UniProt P19525)
[45] = target: BDNF/NT-3 growth factors receptor (Homo sapiens) (UniProt Q16620)

LIM domain kinase 2 (Homo sapiens), sequence (P53671 whole entry, looked up, the tested form may be a part, canonical isoform): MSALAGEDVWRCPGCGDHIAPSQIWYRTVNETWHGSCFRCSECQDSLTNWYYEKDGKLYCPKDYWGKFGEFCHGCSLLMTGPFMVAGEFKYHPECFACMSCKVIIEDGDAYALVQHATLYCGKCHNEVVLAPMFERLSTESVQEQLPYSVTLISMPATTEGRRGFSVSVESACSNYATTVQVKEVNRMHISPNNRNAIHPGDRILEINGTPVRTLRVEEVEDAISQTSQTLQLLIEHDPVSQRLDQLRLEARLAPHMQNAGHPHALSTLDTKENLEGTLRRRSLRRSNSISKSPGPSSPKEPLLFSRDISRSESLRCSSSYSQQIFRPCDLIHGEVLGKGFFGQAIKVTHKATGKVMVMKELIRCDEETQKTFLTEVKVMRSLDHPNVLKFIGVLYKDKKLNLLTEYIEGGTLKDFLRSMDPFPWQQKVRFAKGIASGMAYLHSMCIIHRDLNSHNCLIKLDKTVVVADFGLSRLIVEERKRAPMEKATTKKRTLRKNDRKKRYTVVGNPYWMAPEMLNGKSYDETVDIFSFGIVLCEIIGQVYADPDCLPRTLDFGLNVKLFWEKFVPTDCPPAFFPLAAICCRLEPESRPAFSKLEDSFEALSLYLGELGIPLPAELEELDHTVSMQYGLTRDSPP
TGF-beta receptor type-2 (Homo sapiens), sequence (P37173 whole entry): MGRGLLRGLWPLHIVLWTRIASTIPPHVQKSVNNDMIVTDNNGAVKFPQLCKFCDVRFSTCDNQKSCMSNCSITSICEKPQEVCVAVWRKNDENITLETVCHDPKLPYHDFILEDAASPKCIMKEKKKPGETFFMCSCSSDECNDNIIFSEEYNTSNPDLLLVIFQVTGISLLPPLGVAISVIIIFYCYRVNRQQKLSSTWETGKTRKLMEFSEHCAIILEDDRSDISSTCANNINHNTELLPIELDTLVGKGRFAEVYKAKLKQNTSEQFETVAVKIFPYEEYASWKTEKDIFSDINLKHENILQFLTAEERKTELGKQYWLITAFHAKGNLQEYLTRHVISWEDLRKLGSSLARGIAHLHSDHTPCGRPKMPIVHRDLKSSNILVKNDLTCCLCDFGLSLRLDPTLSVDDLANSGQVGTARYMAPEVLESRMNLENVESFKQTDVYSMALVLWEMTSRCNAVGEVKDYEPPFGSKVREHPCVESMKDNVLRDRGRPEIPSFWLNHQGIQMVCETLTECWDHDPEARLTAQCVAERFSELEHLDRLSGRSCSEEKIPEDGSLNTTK
Angiopoietin-1 receptor (Homo sapiens), sequence (Q02763 whole entry): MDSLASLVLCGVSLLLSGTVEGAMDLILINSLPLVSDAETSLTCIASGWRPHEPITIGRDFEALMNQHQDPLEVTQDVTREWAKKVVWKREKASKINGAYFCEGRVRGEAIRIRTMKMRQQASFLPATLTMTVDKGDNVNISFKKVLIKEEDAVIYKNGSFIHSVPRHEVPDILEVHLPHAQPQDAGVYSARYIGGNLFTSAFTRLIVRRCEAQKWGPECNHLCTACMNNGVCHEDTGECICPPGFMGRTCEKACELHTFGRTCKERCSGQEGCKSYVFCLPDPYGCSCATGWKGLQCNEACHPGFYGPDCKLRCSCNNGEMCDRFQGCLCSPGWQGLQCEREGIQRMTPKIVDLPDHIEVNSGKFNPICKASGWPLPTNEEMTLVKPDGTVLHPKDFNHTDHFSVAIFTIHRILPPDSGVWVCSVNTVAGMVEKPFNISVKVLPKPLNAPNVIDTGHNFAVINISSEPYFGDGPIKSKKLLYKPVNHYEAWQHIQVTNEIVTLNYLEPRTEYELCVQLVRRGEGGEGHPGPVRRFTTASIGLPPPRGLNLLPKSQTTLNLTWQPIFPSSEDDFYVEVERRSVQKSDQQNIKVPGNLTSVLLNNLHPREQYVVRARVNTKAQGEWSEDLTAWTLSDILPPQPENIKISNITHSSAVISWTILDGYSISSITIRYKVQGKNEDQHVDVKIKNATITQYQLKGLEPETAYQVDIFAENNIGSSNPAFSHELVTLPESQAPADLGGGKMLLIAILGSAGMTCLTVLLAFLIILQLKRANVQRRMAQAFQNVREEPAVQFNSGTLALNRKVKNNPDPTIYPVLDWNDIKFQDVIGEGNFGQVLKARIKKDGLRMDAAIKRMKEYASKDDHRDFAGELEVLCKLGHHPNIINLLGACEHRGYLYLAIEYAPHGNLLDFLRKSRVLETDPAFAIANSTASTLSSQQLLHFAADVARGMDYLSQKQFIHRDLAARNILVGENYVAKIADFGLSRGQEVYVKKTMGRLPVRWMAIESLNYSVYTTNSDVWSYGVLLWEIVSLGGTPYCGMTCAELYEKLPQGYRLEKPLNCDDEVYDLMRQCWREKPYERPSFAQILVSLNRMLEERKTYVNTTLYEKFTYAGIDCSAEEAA
Phosphatidylinositol 4,5-bisphosphate 3-kinase catalytic subunit alpha isoform (Homo sapiens), P42336 [C420R], sequence (P42336 whole entry C420R, canonical isoform): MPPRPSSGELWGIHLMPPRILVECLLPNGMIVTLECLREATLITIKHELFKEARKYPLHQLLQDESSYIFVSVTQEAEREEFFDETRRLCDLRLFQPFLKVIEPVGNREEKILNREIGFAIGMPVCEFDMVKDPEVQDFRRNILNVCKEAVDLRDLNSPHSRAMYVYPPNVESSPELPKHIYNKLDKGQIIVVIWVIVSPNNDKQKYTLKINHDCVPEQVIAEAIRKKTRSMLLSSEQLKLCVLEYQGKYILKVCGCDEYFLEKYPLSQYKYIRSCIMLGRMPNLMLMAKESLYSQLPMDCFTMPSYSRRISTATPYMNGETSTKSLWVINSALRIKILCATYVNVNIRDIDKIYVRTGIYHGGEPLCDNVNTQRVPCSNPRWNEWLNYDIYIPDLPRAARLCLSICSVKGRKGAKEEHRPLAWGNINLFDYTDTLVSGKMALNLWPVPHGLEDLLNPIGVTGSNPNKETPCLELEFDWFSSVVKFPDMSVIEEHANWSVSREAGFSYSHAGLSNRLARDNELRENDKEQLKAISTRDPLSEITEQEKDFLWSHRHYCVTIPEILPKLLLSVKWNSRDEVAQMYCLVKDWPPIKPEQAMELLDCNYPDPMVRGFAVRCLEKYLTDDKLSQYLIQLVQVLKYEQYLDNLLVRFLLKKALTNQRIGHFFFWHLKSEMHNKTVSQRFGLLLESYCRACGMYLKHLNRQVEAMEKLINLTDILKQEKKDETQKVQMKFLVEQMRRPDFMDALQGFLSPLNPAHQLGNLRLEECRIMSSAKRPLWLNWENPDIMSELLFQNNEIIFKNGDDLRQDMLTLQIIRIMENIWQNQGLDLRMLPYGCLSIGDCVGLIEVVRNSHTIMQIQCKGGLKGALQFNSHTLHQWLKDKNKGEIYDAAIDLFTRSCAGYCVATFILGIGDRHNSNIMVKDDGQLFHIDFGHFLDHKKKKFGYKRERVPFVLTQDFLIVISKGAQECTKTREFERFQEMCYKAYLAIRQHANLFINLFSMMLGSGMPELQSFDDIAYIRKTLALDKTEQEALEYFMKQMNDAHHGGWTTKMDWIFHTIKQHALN
Focal adhesion kinase 1 (Homo sapiens), sequence (Q05397 2-1052 limits assumed): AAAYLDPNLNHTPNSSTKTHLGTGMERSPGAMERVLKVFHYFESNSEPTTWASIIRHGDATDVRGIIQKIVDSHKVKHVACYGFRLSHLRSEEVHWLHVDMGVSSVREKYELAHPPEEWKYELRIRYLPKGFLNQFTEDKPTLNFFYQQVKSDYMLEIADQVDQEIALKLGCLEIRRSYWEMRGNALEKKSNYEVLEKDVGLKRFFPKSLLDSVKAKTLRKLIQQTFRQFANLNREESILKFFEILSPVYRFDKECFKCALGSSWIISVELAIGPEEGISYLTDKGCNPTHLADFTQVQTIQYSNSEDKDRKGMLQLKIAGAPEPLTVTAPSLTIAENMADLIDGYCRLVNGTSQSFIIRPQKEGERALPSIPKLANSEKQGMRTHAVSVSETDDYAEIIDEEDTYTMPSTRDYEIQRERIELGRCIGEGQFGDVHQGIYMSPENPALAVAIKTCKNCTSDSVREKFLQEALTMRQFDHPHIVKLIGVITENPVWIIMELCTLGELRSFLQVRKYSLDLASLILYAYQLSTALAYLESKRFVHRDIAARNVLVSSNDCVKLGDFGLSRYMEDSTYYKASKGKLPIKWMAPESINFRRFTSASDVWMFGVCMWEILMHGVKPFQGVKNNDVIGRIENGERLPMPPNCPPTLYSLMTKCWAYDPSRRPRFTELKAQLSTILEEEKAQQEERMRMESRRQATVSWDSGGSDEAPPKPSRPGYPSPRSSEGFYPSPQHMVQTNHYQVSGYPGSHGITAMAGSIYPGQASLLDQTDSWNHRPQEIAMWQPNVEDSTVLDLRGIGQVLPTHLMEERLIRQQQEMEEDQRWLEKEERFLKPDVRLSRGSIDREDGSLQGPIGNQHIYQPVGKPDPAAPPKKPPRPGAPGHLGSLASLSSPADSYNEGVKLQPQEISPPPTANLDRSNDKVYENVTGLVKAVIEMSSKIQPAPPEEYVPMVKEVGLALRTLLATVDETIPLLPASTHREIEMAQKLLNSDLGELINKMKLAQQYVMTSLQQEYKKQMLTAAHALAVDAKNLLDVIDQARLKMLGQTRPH
Glycogen synthase kinase-3 beta (Homo sapiens), sequence (P49841 whole entry, looked up): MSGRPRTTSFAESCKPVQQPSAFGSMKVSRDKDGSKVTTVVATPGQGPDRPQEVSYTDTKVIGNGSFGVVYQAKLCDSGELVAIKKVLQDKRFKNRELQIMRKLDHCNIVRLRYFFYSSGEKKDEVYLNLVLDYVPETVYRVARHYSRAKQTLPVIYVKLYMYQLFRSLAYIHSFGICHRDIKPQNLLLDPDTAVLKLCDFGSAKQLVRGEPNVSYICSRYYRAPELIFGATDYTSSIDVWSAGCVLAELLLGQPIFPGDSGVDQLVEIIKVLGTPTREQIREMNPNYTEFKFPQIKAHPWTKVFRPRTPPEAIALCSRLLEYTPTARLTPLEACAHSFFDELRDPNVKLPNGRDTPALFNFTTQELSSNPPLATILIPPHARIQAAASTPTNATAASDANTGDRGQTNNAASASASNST

In the case of `CS(=O)(=O)N1CCCC(NC(=O)[C@H](CCC2CCCCC2)NC(=O)c2ccc(CNc3ncnc4c3nnn4-c3ccccc3)cc2)C1` (stereo not given in full) [SR-301], the residual activity [1] was 97%, the residual activity [2] was 79% and the residual activity [3] was 82%. The residual activity [4] was 75%, the residual activity [5] was 100% and the residual activity [6] was 100%. For the same molecule, the residual activity [7] was 100%, the residual activity [8] was 100% and the residual activity [9] was 100%. For the same molecule, the residual activity [10] was 86%, the residual activity [11] was 98% and the residual activity [12] was 89%. The residual activity [13] was 100%, the residual activity [14] was 94% and the residual activity [15] was 100%. The residual activity [16] was 100%, the residual activity [17] was 53% and the residual activity [18] was 83%. For the same molecule, the residual activity [19] was 89%, the residual activity [20] was 84% and the residual activity [21] was 100%. It also gave a residual activity [22] of 100%, a residual activity [23] of 100% and a residual activity [24] of 93%. For the same molecule, the residual activity [25] was 88%, the residual activity [26] was 100% and the residual activity [27] was 100%. It also gave a residual activity [28] of 89%, a residual activity [29] of 100% and a residual activity [30] of 100%. It also gave a residual activity [31] of 100%, a residual activity [32] of 65% and a residual activity [33] of 100%. The residual activity [34] was 100%, the residual activity [35] was 100% and the residual activity [36] was 79%. It also gave a residual activity [37] of 89%, a residual activity [38] of 73% and a residual activity [39] of 100%. For the same molecule, the residual activity [40] was 95%, the residual activity [41] was 100% and the residual activity [42] was 100%. For the same molecule, the residual activity [43] was 45%, the residual activity [44] was 55% and the residual activity [45] was 100%.

Work on `CS(=O)(=O)N1CCCC(NC(=O)[C@H](CCC2CCCCC2)NC(=O)c2ccc(CNC(=O)c3cnc4ccccn34)cc2)C1` (stereo not given in full) [SR-302] yielded a residual activity [1] of 100%, a residual activity [2] of 100% and a residual activity [3] of 100%. The residual activity [4] was 91%, the residual activity [5] was 100% and the residual activity [6] was 100%. It also gave a residual activity [7] of 94%, a residual activity [8] of 92% and a residual activity [9] of 84%. It also gave a residual activity [10] of 100%, a residual activity [11] of 99% and a residual activity [12] of 93%. The residual activity [13] was 91%, the residual activity [14] was 96% and the residual activity [15] was 100%. It also gave a residual activity [16] of 100%, a residual activity [17] of 86% and a residual activity [18] of 90%. It also gave a residual activity [19] of 63%, a residual activity [20] of 76% and a residual activity [21] of 92%. For the same molecule, the residual activity [22] was 100%, the residual activity [23] was 100% and the residual activity [24] was 91%. The residual activity [25] was 70%, the residual activity [26] was 76% and the residual activity [27] was 100%. The residual activity [28] was 79%, the residual activity [29] was 100% and the residual activity [30] was 100%. For the same molecule, the residual activity [31] was 95%, the residual activity [32] was 93% and the residual activity [33] was 100%. The residual activity [34] was 80%, the residual activity [35] was 83% and the residual activity [36] was 95%. It also gave a residual activity [37] of 67%, a residual activity [38] of 92% and a residual activity [39] of 100%. It also gave a residual activity [40] of 89%, a residual activity [41] of 94% and a residual activity [42] of 99%. It also gave a residual activity [43] of 100%, a residual activity [44] of 47% and a residual activity [45] of 87%.

From ChEMBL document CHEMBL4507324 (2021)
